From patent US20180244660A1, “CYCLOPROPYLDERIVATIVES AND THEIR USE AS KINASE INHIBITORS” (Karyopharm Therapeutics Inc., priority 2015, published 2018)
Where two headings read alike, the source gives them in different places.

How the values were obtained:
MS751 cells = experiment: MTT cell proliferation assay, MS751 cells; assay type: cell-based, human; conditions: incubation approximately 64-72 hours, read-out: MTT Assay IC50 MS 751
Description: (§1) The MTT cell proliferation assay was used to study the cytotoxic properties of the compounds. The assay was performed according to the method described by Roche Molecular Biochemicals, with minor modifications. The assay is based on the cleavage of the tetrazolium salt, MTT, in the presence of an electron-coupling reagent. The water-insoluble formazan salt produced must be solubilized in an additional step. Cells grown in a 96-well tissue culture plate were incubated with the MTT solution for approximately 4 hours. After this incubation period, a water-insoluble formazan dye formed. After solubilization, the formazan dye was quantitated using a scanning multi-well spectrophotometer (ELISA reader). […] The cells were seeded at 5,000-10,000 cells in each well of 96-well plate in 100 μL of fresh culture medium and were allowed to attach overnight. The stock solutions of the compounds were diluted in 100 μL cell culture medium to obtain eight concentrations of each test compound, ranging from 1 nM to 30 μM. […] All optical densities were measured at 490 nm using a Vmax Kinetic Microplate Reader (Molecular Devices). In most cases, the assay was performed in duplicate and the results were presented as a mean percent inhibition to the negative control+SE. The following formula was used to calculate the percent of inhibition: Inhibition (%)=(1−(ODo/OD))×100.
(§2) The compounds were tested against MS751, Z138 and 3T3 cells. The MS751 cell line is derived from a metastasis to lymph node of human cervix from a patient diagnosed with squameous cell carcinoma of the cervix. The Z138 cell line is a mature B-cell acute lymphoblastic leukemia cell line derived from a patient with chronic lumphocytic leukemia. 3T3 cells are standard fibroblast cells; they were originally isolated from Swiss mouse embryo tissue.

Z138 cells = experiment: MTT cell proliferation assay, Z138 cells; assay type: cell-based, human
Description: as §1, §2

3T3 cells = experiment: MTT cell proliferation assay, 3T3 cells; assay type: cell-based, mouse; conditions: 3T3 fibroblast cells, incubation approximately 64-72 hours
Description: as §1, §2

[1] = Homo sapiens, Z-138, incubation approximately 64-72 hours

Molecule	IC50 (MS751 cells; Homo sapiens)	IC50 (Z138 cells; [1])	IC50 (3T3 cells; Mus musculus, NIH3T3)	IC50 (MS751 cells)	IC50 (Z138 cells; incubation approximately 64-72 hours, read-out: MTT Assay IC50 Z-138)	IC50 (3T3 cells)
Nc1ccc([C@H]2C[C@@H]2C(=O)NCc2cc3cc(-c4ccc(C(=O)N5CC(F)C5)cc4)cc(-c4ccc(F)cc4)c3o2)cn1 [Compound K020, (1S,2S)-2-(6-aminopyridin-3-yl)-N—((5-(4-(3-fluoroazetidine-1-carbonyl)phenyl)-7-(4-fluorophenyl)benzofuran-2-yl)methyl)cyclopropanecarboxamide]	< 1 µM	< 1 µM	1 to 5 µM			
Nc1ccc([C@H]2C[C@@H]2C(=O)NCc2nc3cc(-c4ccc(C(=O)N5CCC(F)(F)CC5)cc4)cc(-c4ccc(F)cc4)c3o2)cn1 [Compound K021, (1S,2S)-2-(6-aminopyridin-3-yl)-N—((5-(4-(4,4-difluoropiperidine-1-carbonyl)phenyl)-7-(4-fluorophenyl)benzo[d]oxazol-2-yl)methyl)cyclopropanecarboxamide]	> 10 µM	> 10 µM	> 10 µM			
Nc1ccc([C@H]2C[C@@H]2C(=O)NCc2cc3cc(-c4ccc(C(=O)N5CCC(F)(F)CC5)cc4)cc(-c4ccc(F)cc4)c3[nH]2)cn1 [Compound K022, (1S,2S)-2-(6-aminopyridin-3-yl)-N—((5-(4-(4,4-difluoropiperidine-1-carbonyl)phenyl)-7-(4-fluorophenyl)-1H-indol-2-yl)methyl)cyclopropanecarboxamide]	1 to 5 µM	5 to 10 µM	> 10 µM			
Cn1c(CNC(=O)[C@H]2C[C@@H]2c2ccc(N)nc2)cc2cc(-c3ccc(C(=O)N4CCC(F)(F)CC4)cc3)cc(-c3ccc(F)cc3)c21 [Compound K023, (1S,2S)-2-(6-aminopyridin-3-yl)-N—((5-(4-(4,4-difluoropiperidine-1-carbonyl)phenyl)-7-(4-fluorophenyl)-1-methyl-1H-indol-2-yl)methyl)cyclopropanecarboxamide]	1 to 5 µM	1 to 5 µM	> 10 µM			
Nc1ccc([C@H]2C[C@@H]2C(=O)NCc2cc3cc(-c4ccc(C(=O)N5CC(F)C5)cc4F)cc(-c4ccc(F)cc4)c3o2)cn1 [Compound K024, (1S,2S)-2-(6-aminopyridin-3-yl)-N—((5-(2-fluoro-4-(3-fluoroazetidine-1-carbonyl)phenyl)-7-(4-fluorophenyl)benzofuran-2-yl)methyl)cyclopropanecarboxamide]	< 1 µM	< 1 µM	< 1 µM			
Nc1ccc([C@H]2C[C@@H]2C(=O)NCc2cnc(-c3ccc(-c4ccc(C(=O)N5CC(F)(F)C5)cc4)cc3C(F)(F)F)o2)cn1 [Compound K025, (1S,2S)-2-(6-aminopyridin-3-yl)-N—((2-(4′-(3,3-difluoroazetidine-1-carbonyl)-3-(trifluoromethyl)biphenyl-4-yl)oxazol-5-yl)methyl)cyclopropanecarboxamide]	1 to 5 µM	1 to 5 µM	> 10 µM			
[2H]c1c(CNC(=O)[C@H]2C[C@@H]2c2ccc(N)nc2)oc2c(-c3ccc(F)cc3)cc(-c3ccc(C(=O)N4CC(F)C4)cc3)cc12 [Compound K026, (1S,2S)-2-(6-aminopyridin-3-yl)-N—((3-deutero-5-(4-(3-fluoroazetidine-1-carbonyl)phenyl)-7-(4-fluorophenyl)benzofuran-2-yl)methyl)cyclopropanecarboxamide]	< 1 µM	< 1 µM	1 to 5 µM			
Nc1ccc([C@H]2C[C@@H]2c2nc(-c3cc4cc(-c5ccc(C(=O)N6CC(F)C6)cc5)cc(-c5ccc(F)cc5)c4o3)co2)cn1 [Compound K029, (4-(2-(2-((1S,2S)-2-(6-aminopyridin-3-yl)cyclopropyl)oxazol-4-yl)-7-(4-fluorophenyl)benzofuran-5-yl)phenyl)(3-fluoroazetidin-1-yl)methanone]	1 to 5 µM	1 to 5 µM	> 10 µM			
(1S,2S)-2-(6-aminopyridin-3-yl)-N—((7-chloro-5-(4-(3,3-difluoroazetidine-1-carbonyl)phenyl)-2,3-dihydrobenzofuran-2-yl)methyl)cyclopropanecarboxamide [Compound K028]				< 1 µM	< 1 µM	> 10 µM
